# Activity calls are given as the source filed them.
# Experiments:
# [1] = target: Luciferin 4-monooxygenase (Photinus pyralis, UniProt P08659); assay: Counter Screen for Luciferase-based Assay Positives. [Related pubchem assays: 620, 618, 411 ]
# Jurkat = assay: blockers of NF-kB activation in T cells – Jurkat, luciferase reporter, luminescence, B- and T-cell, dose response (AID 489004); format: functional, cell-based; conditions: Homo sapiens;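 also: NF-kB luciferase reporter Jurkat cells stimulated with PMA plus ionomycin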
# [2] = target: T1, Sentrin-specific protease 8 (Homo sapiens, UniProt Q96LD8); format: functional;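 also: luminescence read-out of SENP8 inhibition, dose-response confirmation following an ultra-high-throughput screen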
# T1 sequence (Q96LD8 whole entry): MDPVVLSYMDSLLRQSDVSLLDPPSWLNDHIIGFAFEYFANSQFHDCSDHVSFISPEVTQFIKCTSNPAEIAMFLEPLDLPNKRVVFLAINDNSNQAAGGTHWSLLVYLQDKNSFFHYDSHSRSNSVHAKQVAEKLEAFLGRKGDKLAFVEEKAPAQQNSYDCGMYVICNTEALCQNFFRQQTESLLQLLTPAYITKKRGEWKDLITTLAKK
# Cytochrome P450 1A2 = target: T2, Cytochrome P450 1A2 (Homo sapiens, UniProt P05177);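 also: PubChem cytochrome P450 panel assay, CYP1A2 panel member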
# T2 sequence (P05177 whole entry): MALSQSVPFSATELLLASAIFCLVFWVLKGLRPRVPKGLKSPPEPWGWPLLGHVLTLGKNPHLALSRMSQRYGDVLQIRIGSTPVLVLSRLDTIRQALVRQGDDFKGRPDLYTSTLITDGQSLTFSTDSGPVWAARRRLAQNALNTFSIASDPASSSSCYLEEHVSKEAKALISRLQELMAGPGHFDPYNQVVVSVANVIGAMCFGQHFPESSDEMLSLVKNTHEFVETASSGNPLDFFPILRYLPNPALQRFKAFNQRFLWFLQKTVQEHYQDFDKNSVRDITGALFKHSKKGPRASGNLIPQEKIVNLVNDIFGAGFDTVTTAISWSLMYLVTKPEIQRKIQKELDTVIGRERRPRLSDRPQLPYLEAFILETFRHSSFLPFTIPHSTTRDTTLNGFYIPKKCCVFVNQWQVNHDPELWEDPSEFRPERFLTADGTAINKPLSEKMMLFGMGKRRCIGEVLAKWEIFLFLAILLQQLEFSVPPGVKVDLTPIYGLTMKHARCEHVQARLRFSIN
# Cytochrome P450 2C9 = Cytochrome P450 2C9 (Homo sapiens, UniProt P11712)
# [3] = target: Tyrosine-protein kinase SYK (Homo sapiens, UniProt P43405); format: functional
# [4] = target: Tyrosine-protein kinase Blk (Homo sapiens, UniProt P51451); format: functional;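 also: obtained as one member of a kinome-wide kinase assay panel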
# [5] = target: High affinity nerve growth factor receptor (Homo sapiens, UniProt P04629); format: functional;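 also: NTRK1 tested as one member of a kinome-wide profiling panel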
# [6] = target: Tyrosine-protein kinase Fer (Homo sapiens, UniProt P16591); format: functional;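 also: FER tested as one member of a kinome panel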
# [7] = target: Glycogen synthase kinase-3 beta (Homo sapiens, UniProt P49841); format: functional;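 also: value comes from a broad kinome profiling panel, with GSK3B as the panel member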
# [8] = target: BDNF/NT-3 growth factors receptor (Homo sapiens, UniProt Q16620); format: functional;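 also: NTRK2 measured as one member of a broad kinome-wide kinase profiling panel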
# [9] = Intein inhibitors as potential Tuberculosis drugs, a cytotoxicity screen. [Related pubchem assays (depositor defined):AID2221, AID2223, AID434968, AID435010, AID449749, AID449750, AID489010]; format: functional
# [10] = target: T3, Replicative DNA helicase DnaB (Mycobacterium tuberculosis, UniProt P9WMR3); assay: DnaB Intein secondary assay Measured in Biochemical System Using Plate Reader - 2047-04_Inhibitor_Dose_DryPowder_Activity. [Related pubchem assays (depositor defined):AID2223]
# T3 sequence (P9WMR3 whole entry): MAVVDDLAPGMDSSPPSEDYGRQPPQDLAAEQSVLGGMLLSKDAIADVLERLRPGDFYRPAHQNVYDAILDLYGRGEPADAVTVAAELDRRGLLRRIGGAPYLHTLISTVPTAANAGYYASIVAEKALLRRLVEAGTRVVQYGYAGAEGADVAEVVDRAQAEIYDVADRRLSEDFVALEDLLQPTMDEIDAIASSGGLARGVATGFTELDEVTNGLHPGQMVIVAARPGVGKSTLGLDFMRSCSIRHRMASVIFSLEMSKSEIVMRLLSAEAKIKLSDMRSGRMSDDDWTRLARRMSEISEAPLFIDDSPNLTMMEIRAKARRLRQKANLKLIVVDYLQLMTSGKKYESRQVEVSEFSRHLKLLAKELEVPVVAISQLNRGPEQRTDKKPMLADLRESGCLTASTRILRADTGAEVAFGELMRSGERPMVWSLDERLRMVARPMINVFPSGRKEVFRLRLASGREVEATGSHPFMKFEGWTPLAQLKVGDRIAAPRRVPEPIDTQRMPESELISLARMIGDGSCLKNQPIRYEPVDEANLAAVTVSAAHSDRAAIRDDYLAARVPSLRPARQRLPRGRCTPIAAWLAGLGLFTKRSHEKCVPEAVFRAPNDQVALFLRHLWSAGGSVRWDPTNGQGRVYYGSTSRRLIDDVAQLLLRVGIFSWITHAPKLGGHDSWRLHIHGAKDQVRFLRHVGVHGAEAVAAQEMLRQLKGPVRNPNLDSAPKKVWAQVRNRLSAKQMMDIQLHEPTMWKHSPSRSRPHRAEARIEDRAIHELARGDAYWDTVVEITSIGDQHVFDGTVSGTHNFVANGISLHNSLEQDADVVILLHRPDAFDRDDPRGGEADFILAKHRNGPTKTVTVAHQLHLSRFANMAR
# 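For CC50 in this document: cells exposed to compound for 72 hours before luminescence readout.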
# Glycogen synthase kinase-3 beta, sequence (P49841 whole entry): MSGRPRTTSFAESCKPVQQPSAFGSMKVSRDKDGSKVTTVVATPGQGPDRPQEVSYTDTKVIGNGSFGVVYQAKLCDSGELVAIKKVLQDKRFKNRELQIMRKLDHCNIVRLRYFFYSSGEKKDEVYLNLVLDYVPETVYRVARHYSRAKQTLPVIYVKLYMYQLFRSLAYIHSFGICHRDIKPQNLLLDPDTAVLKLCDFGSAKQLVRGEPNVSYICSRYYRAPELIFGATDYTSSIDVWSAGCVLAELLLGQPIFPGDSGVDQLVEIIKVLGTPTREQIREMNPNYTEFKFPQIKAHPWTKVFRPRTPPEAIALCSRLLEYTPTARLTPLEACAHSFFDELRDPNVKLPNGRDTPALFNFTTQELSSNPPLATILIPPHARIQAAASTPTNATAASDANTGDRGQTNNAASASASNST
# Luciferin 4-monooxygenase, sequence (P08659 whole entry): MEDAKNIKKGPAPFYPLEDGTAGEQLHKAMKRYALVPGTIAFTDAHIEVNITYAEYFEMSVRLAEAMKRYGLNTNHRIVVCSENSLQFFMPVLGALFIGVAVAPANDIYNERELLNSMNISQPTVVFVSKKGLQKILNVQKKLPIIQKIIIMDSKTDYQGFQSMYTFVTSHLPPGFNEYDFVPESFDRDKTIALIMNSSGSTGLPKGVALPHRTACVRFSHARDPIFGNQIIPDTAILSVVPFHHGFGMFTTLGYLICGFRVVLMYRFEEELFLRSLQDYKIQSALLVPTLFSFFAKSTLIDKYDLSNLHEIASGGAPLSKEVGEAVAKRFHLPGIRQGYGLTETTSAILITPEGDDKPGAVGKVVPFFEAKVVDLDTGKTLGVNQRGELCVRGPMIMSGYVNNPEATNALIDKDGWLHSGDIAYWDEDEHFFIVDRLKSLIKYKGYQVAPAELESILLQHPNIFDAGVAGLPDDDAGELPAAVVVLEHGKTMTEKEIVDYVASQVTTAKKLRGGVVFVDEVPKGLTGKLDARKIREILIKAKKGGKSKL
# Cytochrome P450 2C9, sequence (P11712 whole entry): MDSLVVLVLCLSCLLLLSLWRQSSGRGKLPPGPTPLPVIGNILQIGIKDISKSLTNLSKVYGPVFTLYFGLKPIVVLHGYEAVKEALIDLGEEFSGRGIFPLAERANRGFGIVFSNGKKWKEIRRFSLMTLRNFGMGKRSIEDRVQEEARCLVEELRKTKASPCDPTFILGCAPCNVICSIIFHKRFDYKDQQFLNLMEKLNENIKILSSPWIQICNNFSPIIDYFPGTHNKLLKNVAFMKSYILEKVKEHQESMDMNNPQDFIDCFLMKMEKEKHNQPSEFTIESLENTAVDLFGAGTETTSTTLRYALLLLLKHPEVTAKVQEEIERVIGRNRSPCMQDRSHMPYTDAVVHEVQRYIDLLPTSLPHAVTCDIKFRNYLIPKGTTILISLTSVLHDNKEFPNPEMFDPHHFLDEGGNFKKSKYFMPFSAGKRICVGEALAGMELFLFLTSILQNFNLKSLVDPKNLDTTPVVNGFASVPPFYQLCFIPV
# High affinity nerve growth factor receptor, sequence (P04629 whole entry): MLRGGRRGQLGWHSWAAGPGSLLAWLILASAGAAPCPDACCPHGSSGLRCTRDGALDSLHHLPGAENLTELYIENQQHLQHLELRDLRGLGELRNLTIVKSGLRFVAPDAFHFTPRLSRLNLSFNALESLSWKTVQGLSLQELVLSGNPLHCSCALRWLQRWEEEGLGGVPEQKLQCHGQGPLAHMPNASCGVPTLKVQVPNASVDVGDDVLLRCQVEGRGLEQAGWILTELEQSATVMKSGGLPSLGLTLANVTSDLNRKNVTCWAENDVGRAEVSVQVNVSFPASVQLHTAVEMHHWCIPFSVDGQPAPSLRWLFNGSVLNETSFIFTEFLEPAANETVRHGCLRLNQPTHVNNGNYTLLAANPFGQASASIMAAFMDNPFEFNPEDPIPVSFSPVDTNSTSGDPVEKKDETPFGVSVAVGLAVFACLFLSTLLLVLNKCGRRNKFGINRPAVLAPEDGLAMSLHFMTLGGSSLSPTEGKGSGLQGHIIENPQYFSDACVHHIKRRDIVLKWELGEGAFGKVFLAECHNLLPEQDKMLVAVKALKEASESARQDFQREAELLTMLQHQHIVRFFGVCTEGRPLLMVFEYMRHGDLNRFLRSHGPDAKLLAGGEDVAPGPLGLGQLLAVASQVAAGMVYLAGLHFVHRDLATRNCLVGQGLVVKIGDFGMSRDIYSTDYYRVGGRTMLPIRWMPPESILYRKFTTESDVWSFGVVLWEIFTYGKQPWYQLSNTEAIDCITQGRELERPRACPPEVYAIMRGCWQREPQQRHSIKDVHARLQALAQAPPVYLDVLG
# BDNF/NT-3 growth factors receptor, sequence (Q16620 whole entry): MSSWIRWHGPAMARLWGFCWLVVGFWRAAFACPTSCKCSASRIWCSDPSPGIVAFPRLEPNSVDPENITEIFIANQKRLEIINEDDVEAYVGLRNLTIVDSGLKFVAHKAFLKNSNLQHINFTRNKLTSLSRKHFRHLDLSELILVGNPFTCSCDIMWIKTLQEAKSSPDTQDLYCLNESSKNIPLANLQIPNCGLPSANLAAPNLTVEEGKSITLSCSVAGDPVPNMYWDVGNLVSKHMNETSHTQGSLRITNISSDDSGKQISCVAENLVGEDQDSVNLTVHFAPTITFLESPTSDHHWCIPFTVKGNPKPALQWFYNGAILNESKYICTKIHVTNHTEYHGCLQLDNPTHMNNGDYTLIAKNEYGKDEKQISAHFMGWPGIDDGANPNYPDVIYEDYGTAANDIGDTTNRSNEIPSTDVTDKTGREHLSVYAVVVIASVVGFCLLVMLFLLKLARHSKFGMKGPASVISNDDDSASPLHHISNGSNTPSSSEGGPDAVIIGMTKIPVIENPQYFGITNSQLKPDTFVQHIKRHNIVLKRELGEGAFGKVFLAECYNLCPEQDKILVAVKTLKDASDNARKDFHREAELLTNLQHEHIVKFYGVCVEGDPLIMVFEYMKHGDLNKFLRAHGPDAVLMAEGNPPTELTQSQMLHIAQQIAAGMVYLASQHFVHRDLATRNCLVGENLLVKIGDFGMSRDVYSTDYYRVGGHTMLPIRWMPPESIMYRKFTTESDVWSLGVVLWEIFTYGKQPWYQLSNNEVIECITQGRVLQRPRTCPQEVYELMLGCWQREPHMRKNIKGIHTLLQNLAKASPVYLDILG
# Tyrosine-protein kinase Blk, sequence (P51451 whole entry): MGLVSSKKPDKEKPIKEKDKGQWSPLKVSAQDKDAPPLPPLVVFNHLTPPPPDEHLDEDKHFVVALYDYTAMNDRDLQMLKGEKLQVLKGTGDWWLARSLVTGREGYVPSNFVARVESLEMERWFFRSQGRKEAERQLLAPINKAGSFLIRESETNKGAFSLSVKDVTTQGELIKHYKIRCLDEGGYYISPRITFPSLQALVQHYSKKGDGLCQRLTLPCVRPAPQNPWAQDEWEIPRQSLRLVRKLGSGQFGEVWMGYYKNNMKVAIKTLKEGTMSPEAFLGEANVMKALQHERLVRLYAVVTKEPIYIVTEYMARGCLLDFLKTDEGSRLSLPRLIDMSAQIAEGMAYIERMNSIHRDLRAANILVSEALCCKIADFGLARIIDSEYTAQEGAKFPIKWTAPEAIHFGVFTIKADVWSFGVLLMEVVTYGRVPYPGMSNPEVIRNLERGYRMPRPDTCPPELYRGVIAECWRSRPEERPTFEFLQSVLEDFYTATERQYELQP
# Tyrosine-protein kinase Fer, sequence (P16591 whole entry): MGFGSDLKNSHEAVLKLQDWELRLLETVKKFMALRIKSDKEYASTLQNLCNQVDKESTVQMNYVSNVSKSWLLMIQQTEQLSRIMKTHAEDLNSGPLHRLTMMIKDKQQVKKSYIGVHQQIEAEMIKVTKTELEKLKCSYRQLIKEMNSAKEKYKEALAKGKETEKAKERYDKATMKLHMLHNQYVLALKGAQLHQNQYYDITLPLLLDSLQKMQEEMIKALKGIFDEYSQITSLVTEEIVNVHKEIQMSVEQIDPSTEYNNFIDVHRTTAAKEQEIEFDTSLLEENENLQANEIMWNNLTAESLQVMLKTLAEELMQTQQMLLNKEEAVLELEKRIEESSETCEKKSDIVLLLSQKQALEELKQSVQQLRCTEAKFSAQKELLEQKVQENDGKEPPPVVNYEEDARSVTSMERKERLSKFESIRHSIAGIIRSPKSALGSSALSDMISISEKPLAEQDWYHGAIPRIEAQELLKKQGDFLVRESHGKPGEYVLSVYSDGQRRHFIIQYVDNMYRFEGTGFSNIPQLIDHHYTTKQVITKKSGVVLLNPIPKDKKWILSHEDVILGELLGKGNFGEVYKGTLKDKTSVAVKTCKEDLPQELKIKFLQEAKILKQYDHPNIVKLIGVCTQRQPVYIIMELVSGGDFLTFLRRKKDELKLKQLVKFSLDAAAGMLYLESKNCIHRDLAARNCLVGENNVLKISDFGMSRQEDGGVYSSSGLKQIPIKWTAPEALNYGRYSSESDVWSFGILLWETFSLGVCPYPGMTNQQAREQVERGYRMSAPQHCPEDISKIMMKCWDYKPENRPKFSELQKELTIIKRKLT
smiles,measurement,setting,value
CC(C)c1ccc(-c2nnn(CCC(=O)O)n2)cc1,EC50,[1],4.77 µM (active)
same,IC50,Jurkat,< 0.16 µM (active)
same,IC50,[2],7.27 µM (active)
same,AC50,Cytochrome P450 1A2,12.6 µM (inconclusive)
same,AC50,Cytochrome P450 2C9,31.6 µM (inconclusive)
COc1cc2c(cc1Nc1nc(Nc3cccc(F)c3C(N)=O)c3cc[nH]c3n1)N(C(=O)CN(C)C)CC2,Ki,[3],> 1.58 µM (inactive)
same,Ki,[4],> 1.58 µM (inactive)
same,Ki,[5],> 3.16 µM (inactive)
same,Ki,[6],0.00158 µM (active)
same,Ki,[7],> 3.98 µM (inactive)
same,Ki,[8],> 3.98 µM (inactive)
CCn1nc(/C=C/c2ccccc2)nc2c(=O)n(C)c(=O)nc1-2,CC50,[9],> 40 µM (active)
same,AC50,[10],0.184 µM (active)

# From ChEMBL document CHEMBL1201862, “PubChem BioAssay data set” (2004)
